Test results: patent publication US10329270B2, “Heteroaryl compounds as BTK inhibitors and uses thereof” (Merck Patent GmbH, priority 2013, dated 2019)
pIC50: −log10 of the molar value. Counter-ions that a name gives are not always drawn.

target: T1, full-length human BTK (Homo sapiens, UniProt Q06187); experiment: Assay A: BTK IC50 Enzyme Assay (microfluidic off-chip mobility shift kinase assay); type: biochemical; details: full-length human BTK, kinKDR peptide substrate, incubated 90 min at 27 C; read-out: Assay A (Time Dependent BTK Enzyme Assay IC50)
T1 construct: 2.5× stocks of full-length human BTK (08-080); purchased CarnaBio USA, Inc., Natick, Mass; 08-080
T1 sequence (Q06187 whole entry): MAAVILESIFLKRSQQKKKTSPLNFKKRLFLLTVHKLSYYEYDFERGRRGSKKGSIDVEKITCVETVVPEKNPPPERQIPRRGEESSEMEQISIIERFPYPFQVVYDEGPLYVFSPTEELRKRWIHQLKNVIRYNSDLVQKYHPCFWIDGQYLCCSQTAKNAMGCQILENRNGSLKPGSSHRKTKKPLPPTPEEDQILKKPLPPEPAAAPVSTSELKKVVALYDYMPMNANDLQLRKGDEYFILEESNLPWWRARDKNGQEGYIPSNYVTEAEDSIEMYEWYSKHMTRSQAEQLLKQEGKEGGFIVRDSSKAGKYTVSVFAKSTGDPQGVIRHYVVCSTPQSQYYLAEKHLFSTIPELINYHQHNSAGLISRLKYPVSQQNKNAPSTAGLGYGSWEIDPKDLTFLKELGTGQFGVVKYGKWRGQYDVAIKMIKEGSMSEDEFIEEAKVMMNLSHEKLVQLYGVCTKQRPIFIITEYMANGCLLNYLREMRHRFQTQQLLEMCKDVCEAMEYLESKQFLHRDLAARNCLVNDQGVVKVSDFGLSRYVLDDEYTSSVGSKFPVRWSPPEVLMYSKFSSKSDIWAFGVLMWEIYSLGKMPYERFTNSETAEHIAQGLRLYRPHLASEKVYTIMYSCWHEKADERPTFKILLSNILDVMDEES
Method: Assay A: BTK IC50 Enzyme Assay
The following describes a microfluidic, off-chip mobility shift kinase assay used to measure inherent potency of compounds against BTK enzyme. Compounds described by embodiments of the present invention were assayed using this protocol and the data from the same is recorded in Table 2 within the column labeled: “Time Dependent BTK Enzyme Assay IC50”.
Stopped reactions were monitored at −2 PSI, −3000 V/−700 V in a LabChip 3000 plate reader from Caliper Life Sciences, a PerkinElmer Company (Hopkinton, Mass.), and the activity was measured by off-chip mobility shift assay measuring the charge/mass difference between substrate and product resulting from peptide phosphorilation. IC50 and efficacy were determined by plotting log [Inhibitor] vs. % Activity in GeneData Screener (Basel, Switzerland). […] I<1 uM and II>1 uM.

Row | pIC50 | Compound
1 | > 7.00 | C=CC(=O)N[C@H]1CCN(c2ccc(C(N)=O)c(Nc3ccc(CCN4CCC(F)(F)C4)cc3)n2)C1 [Compound 24, 6-((S)-3-Acryloylamino-pyrrolidin-1-yl)-2-{4-[2-(3,3-difluoro-pyrrolidin-1-yl)-ethyl]-phenylamino}-nicotinamide]
2 | < 5.30 | C=CC(=O)N1CCC(c2cnc(C(N)=O)nc2)CC1 [Compound 153]
3 | > 7.00 | C=CC(=O)N1CCC(c2ccc(C(N)=O)c(Nc3ccc(C(=O)N4CCN(C(=O)CCCCN)CC4)cc3)n2)CC1 [Compound 29, 1′-Acryloyl-6-{4-[4-(5-amino-pentanoyl)-piperazine-1-carbonyl]-phenylamino}-1′,2′,3′,4′,5′,6′-hexahydro-[2,4′]bipyridinyl-5-carboxylic acid amide hydrochloride]
4 | 6.00 to 7.00 | C=CC(=O)N1CCN(c2ccc(C(N)=O)c(N(C)c3cccc(C)c3)n2)CC1 [Compound 58, 6-(4-Acryloyl-piperazin-1-yl)-2-(methyl-m-tolyl-amino)-nicotinamide]
5 | > 7.00 | C=CC(=O)N[C@H]1CCN(c2ccc(C(N)=O)c(Nc3ccc(F)cc3)n2)C1 [Compound 48, 6-((S)-3-Acryloylamino-pyrrolidin-1-yl)-2-(4-fluoro-phenylamino)-nicotinamide]
6 | < 5.30 | C/C=C/C(=O)NC1CCN(c2cnc(Oc3ccc(Oc4cccc(F)c4)cc3)c(C(N)=O)c2)C1 (stereo not shown) [Compound 221, 5-[3-((E)-But-2-enoylamino)-pyrrolidin-1-yl]-2-[4-(3-fluoro-phenoxy)-phenoxy]-nicotinamide]
7 | 6.00 to 7.00 | C=CC(=O)N1CCCC(Nc2cnc(Oc3ccc(Oc4ccccc4)cc3)c(C(N)=O)c2)C1 (stereo not shown) [Compound 223, 5-(1-Acryloyl-piperidin-3-ylamino)-2-(4-phenoxy-phenoxy)-nicotinamide]
8 | > 7.00 | C=CC(=O)N1CCC(c2cc(Oc3ccc(OCc4ccccc4)cc3)c(C(N)=O)cn2)C1 (stereo not shown) [Compound 111, 6-(1-acryloylpyrrolidin-3-yl)-4-(4-(benzyloxy)phenoxy)nicotinamide]
9 | 6.00 to 7.00 | C=CC(=O)N[C@H]1CCN(c2cc(Oc3ccc(Oc4cccc(C#N)c4)cc3)c(C(N)=O)cn2)C1 [Compound 113, (S)-6-(3-acrylamidopyrrolidin-1-yl)-4-(4-(3-cyanophenoxy)phenoxy)nicotinamide]
10 | > 7.00 | C=CC(=O)N1C[C@@H]2C[C@H]1CN2c1ncc(C(N)=O)c(Oc2ccc(Oc3ccccc3)cc2)n1 [Compound 147, 2-((1S,4S)-5-acryloyl-2,5-diazabicyclo[2.2.1]heptan-2-yl)-4-(4-phenoxyphenoxy)pyrimidine-5-carboxamide]
11 | 6.00 to 7.00 | C=CC(=O)NC1CCN(c2cnc(Oc3ccc(Oc4ccccc4)cc3)c(C(N)=O)c2)CC1 [Compound 197]
12 | 6.00 to 7.00 | C=CC(=O)N[C@H]1CCN(c2ncc(C(N)=O)c(Oc3ccc(Oc4ccccc4)cc3)n2)C1 [Compound 192, (S)-2-(3-acrylamidopyrrolidin-1-yl)-4-(4-phenoxyphenoxy)pyrimidine-5-carboxamide]
13 | 6.00 to 7.00 | C=CC(=O)N1CCC2(CCN(c3cnc(Oc4ccc(Oc5ccccc5)cc4)c(C(N)=O)c3)C2)C1 (stereo not shown) [Compound 224, 5-(7-Acryloyl-2,7-diaza-spiro[4.4]non-2-yl)-2-(4-phenoxy-phenoxy)-nicotinamide]
14 | 5.30 to 6.00 | C=CC(=O)NCc1cccc(-c2cnc(C(N)=O)nc2)c1 [Compound 152]
15 | < 5.30 | C=CC(=O)N[C@H]1CCN(c2ccc(C(N)=O)c(NCCN3CCOCC3)n2)C1 [Compound 166, 6-((S)-3-Acryloylamino-pyrrolidin-1-yl)-2-(2-morpholin-4-yl-ethylamino)-nicotinamide]
16 | 5.30 to 6.00 | C/C=C/C(=O)N1CCC2(CCN(c3cnc(Oc4ccc(Oc5cccc(F)c5)cc4)c(C(N)=O)c3)C2)C1 (stereo not shown) [Compound 232, (E)-5-(7-(but-2-enoyl)-2,7-diazaspiro[4.4]nonan-2-yl)-2-(4-(3-fluorophenoxy)phenoxy) nicotinamide]
17 | > 7.00 | C=CC(=O)N1CCC(c2ccc(C(N)=O)c(Nc3ccc(C(=O)N4CCN(C(=O)CCCCNC(=S)Nc5ccc(C6=C7C(C)=CC(C)=[N+]7[B-](F)(F)n7c(C)cc(C)c76)cc5)CC4)cc3)n2)CC1 [Compound 63, 1′-Acryloyl-6-{4-[4-(5-{3-[4-(4,4-difluoro-1,3,5,7-tetramethyl-3a,4alambda4-diaza-4lambda4-bora-s-indacen-8-yl)-phenyl]-thioureido}-pentanoyl)-piperazine-1-carbonyl]-phenylamino}-1′,2′,3′,4′,5′,6′-hexahydro-[2,4′]bipyridinyl-5-carboxylic acid amide]
18 | > 7.00 | C=CC(=O)N[C@H]1CCN(c2ncc(C(N)=O)c(Nc3ccc(C(=O)N4CCOCC4)cc3)n2)C1 [Compound 140, 2-((S)-3-Acryloylamino-pyrrolidin-1-yl)-4-[4-(morpholine-4-carbonyl)-phenylamino]-pyrimidine-5-carboxylic acid amide]
19 | > 7.00 | C=CC(=O)N1CCN(c2ccc(C(N)=O)c(Nc3ccc(C)nc3)n2)CC1 [Compound 34]
20 | 6.00 to 7.00 | C=CC(=O)N[C@H]1CCN(c2ccc(C(N)=O)c(Nc3ccc(F)c(C)c3)n2)C1 [Compound 60, 6-((S)-3-Acryloylamino-pyrrolidin-1-yl)-2-(4-fluoro-3-methyl-phenylamino)-nicotinamide]
21 | < 5.30 | CN(C)C/C=C/C(=O)N1CCC(Nc2ncc(C(N)=O)c(N)n2)C1 (stereo not shown) [Compound 138, 4-Amino-2-[1-((E)-4-dimethylamino-but-2-enoyl)-pyrrolidin-3-ylamino]-pyrimidine-5-carboxylic acid amide]
22 | > 7.00 | C=CC(=O)N[C@H]1CCN(c2ccc(C(N)=O)c(Oc3ccc(Oc4cccc(F)c4)cc3)n2)C1 [Compound 73, (S)-6-(3-acrylamidopyrrolidin-1-yl)-2-(4-(3-fluorophenoxy)phenoxy)nicotinamide]
23 | < 5.30 | C=CC(=O)N1CCn2ncc(-c3cnc(C(N)=O)cn3)c2C1 [Compound 137]
24 | > 7.00 | C=CC(=O)N(C)[C@H]1CCN(c2ccc(C(N)=O)c(Oc3ccc(Oc4ccccc4)cc3)n2)C1 [Compound 107, 6-[(S)-3-(Acryloyl-methyl-amino)-pyrrolidin-1-yl]-2-(4-phenoxy-phenoxy)-nicotinamide]
25 | 5.30 to 6.00 | C/C=C/C(=O)N1CCCC(Nc2cnc(Oc3ccc(Oc4cccc(F)c4)cc3)c(C(N)=O)c2)C1 (stereo not shown) [Compound 231, (E)-5-((1-(but-2-enoyl)piperidin-3-yl)amino)-2-(4-(3-fluorophenoxy)phenoxy)nicotinamide]
26 | > 7.00 | C=CC(=O)N[C@H]1CCN(c2ccc(C(N)=O)c(Nc3ccc(N4CC(C)OC(C)C4)cc3)n2)C1 (stereo partly drawn) [Compound 33, 6-((S)-3-Acryloylamino-pyrrolidin-1-yl)-2-[4-(2,6-dimethyl-morpholin-4-yl)-phenylamino]-nicotinamide]
27 | > 7.00 | C=CC(=O)N1CCC(c2ccc(C(N)=O)c(Nc3ccc(C(=O)N4CCN(C(=O)CCCCNC(=O)OC(C)(C)C)CC4)cc3)n2)CC1 [Compound 19]
28 | 6.00 to 7.00 | C=CC(=O)N[C@H]1CCN(c2nc(Nc3ccc(N4CCC(F)(F)CC4)cc3)c(F)cc2C(N)=O)C1 [Compound 186, 2-((S)-3-Acryloylamino-pyrrolidin-1-yl)-6-[4-(4,4-difluoro-piperidin-1-yl)-phenylamino]-5-fluoro-nicotinamide formic acid]
